For one cell line, relative viability results are on record in the supplement of paper PMC10307832.

What all share (experiment): relative viability (nuclei count vs DMSO), 5 days (fraction); higher = more cells survive
Compound in the test “Ispinesib + Foretinib”: Cc1ccc(C(=O)N(CCCN)[C@@H](c2nc3cc(Cl)ccc3c(=O)n2Cc2ccccc2)C(C)C)cc1 [Ispinesib] + COc1cc2c(Oc3ccc(NC(=O)C4(C(=O)Nc5ccc(F)cc5)CC4)cc3F)ccnc2cc1OCCCN1CCOCC1 [Foretinib] (partner 0.25 µM)
The gist of the method: (§1)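 Relative viability divides the nuclei count in treated wells by that in vehicle wells. Lung cancer cell lines were seeded in 1536-well plates, dosed by pin tool the next day, and fixed and stained after 5 days in one step with final 0.05% Triton X-100, 1% formaldehyde and 1 ug/ml Hoechst. Dosing was a single drug or a fixed anchor-drug dose plus five library-drug doses (not always all listed) in √10 steps, and values are medians of duplicate plates imaged at 4×.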

Compound in the test “Ispinesib + Lapatinib”: Cc1ccc(C(=O)N(CCCN)[C@@H](c2nc3cc(Cl)ccc3c(=O)n2Cc2ccccc2)C(C)C)cc1 [Ispinesib] + CS(=O)(=O)CCNCc1ccc(-c2ccc3ncnc(Nc4ccc(OCc5cccc(F)c5)c(Cl)c4)c3c2)o1 [Lapatinib] (partner 2 µM)
The gist of the method:
as §1

Compound in the test “Linsitinib + Bortezomib”: C[C@]1(O)C[C@@H](c2nc(-c3ccc4ccc(-c5ccccc5)nc4c3)c3c(N)nccn32)C1 [Linsitinib] + CC(C)C[C@H](NC(=O)[C@H](Cc1ccccc1)NC(=O)c1cnccn1)B(O)O [Bortezomib] (partner 0.002 µM)
The gist of the method: as §1

Compound in the test “Ispinesib + Olaparib”: Cc1ccc(C(=O)N(CCCN)[C@@H](c2nc3cc(Cl)ccc3c(=O)n2Cc2ccccc2)C(C)C)cc1 [Ispinesib] + O=C(c1cc(Cc2n[nH]c(=O)c3ccccc23)ccc1F)N1CCN(C(=O)C2CC2)CC1 [Olaparib] (partner 8 µM)
The gist of the method: as §1

Take UMC-11: the relative viability in the test with Ispinesib + Foretinib (first compound 0.001 µM) was 1.03; in the test with Ispinesib + Foretinib (first compound 0.003162 µM) it was 0.995; in the test with Ispinesib + Foretinib (first compound 0.01 µM) it was 0.889; with Ispinesib + Foretinib (first compound 0.03162 µM), 0.322; in the test with Ispinesib + Foretinib (first compound 0.1 µM), 0.233; with Ispinesib + Lapatinib (first compound 0.001 µM), 1.08. For the same cell line, the relative viability was 0.751 in the test with Ispinesib + Lapatinib (first compound 0.003162 µM); 0.723 with Ispinesib + Lapatinib (first compound 0.01 µM); 0.294 in the test with Ispinesib + Lapatinib (first compound 0.03162 µM); 0.216 with Ispinesib + Lapatinib (first compound 0.1 µM); 0.693 with Linsitinib + Bortezomib (first compound 0.01 µM); 0.621 with Linsitinib + Bortezomib (first compound 0.03162 µM). The relative viability with Linsitinib + Bortezomib (first compound 0.1 µM) was determined as 0.829; with Linsitinib + Bortezomib (first compound 1 µM), 0.752; with Ispinesib + Olaparib (first compound 0.001 µM) it was 0.693; in the test with Ispinesib + Olaparib (first compound 0.003162 µM) it was 0.389; with Ispinesib + Olaparib (first compound 0.01 µM), 0.345; with Ispinesib + Olaparib (first compound 0.03162 µM) it was 0.325. Further, the relative viability with Ispinesib + Olaparib (first compound 0.1 µM) is 0.272.
